Molecular target: Human Cot (Homo sapiens (Human), UniProt P41279)
Assay: High Throughput Cot Biochemical Assay
Conditions: IC50 HTRF, Cot HTRF (TR-FRET KinEASE) biochemical assay, 400 μM ATP

Chain of Human Cot (P41279 30-397): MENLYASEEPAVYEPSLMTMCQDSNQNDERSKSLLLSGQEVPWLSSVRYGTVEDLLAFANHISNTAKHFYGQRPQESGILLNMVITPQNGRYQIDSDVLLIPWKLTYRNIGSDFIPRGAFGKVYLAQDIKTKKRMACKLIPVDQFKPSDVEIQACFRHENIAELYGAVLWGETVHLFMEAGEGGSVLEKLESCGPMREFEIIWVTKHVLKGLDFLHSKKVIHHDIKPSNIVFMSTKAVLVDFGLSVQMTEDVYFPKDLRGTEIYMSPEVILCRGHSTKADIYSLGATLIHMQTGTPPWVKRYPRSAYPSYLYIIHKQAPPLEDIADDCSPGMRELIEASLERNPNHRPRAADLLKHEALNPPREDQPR

IC50 | SMILES
9 nM | Cc1nc(F)ccc1[C@H](Nc1cc(Cl)c2ncc(C#N)c(NCC(C)(C)C)c2c1)c1nnn(C23CC(C2)C3)c1F [Example 951, (S)-6-(((1-(bicyclo[1.1.1]pentan-1-yl)-5-fluoro-1H-1,2,3-triazol-4-yl)(6-fluoro-2-methylpyridin-3-yl)methyl)amino)-8-chloro-4-(neopentylamino)quinoline-3-carbonitrile]
2 nM | COc1c([C@@H](Nc2cc(C#N)c3ncc(C#N)c(NCC(C)(C)C)c3c2)c2ccc(F)nc2C)nnn1C1CC1 [Example 859, (S)-6-(((1-cyclopropyl-5-methoxy-1H-1,2,3-triazol-4-yl)(6-fluoro-2-methylpyridin-3-yl)methyl)amino)-4-(neopentylamino)quinoline-3,8-dicarbonitrile]

Same assay, conditions: IC50 HTRF, Cot HTRF (TR-FRET) biochemical assay

IC50 | SMILES
59 nM | N#Cc1cnc2c(Cl)cc(N[C@H](c3cn(CCO)nn3)c3cnc(Cl)cc3Cl)cc2c1Nc1ccc(F)c(Cl)c1 [Example 330, (S)-8-chloro-4-((3-chloro-4-fluorophenyl)amino)-6-(((4,6-dichloropyridin-3-yl)(1-(2-hydroxy-ethyl)-1H-1,2,3-triazol-4-yl)methyl)-amino)quinoline-3-carbonitrile]
3 nM | Cc1nc(F)ccc1[C@H](Nc1cc(Cl)c2ncc(C#N)c(NCC(C)(C)C)c2c1)c1cn(C2(C#N)CC2)nn1 [Example 476, (S)-8-chloro-6-(((1-(1-cyanocyclopropyl)-1H-1,2,3-triazol-4-yl)(6-fluoro-2-methylpyridin-3-yl)methyl)amino)-4-(neopentylamino)-quinoline-3-carbonitrile]
10 nM | N#Cc1cnc2c(Cl)cc(N[C@H](c3cn(C4CCNCC4)nn3)c3cccs3)cc2c1Nc1ccc(F)c(Cl)c1 [Example 388, (R)-8-chloro-4-((3-chloro-4-fluoro-phenyl)amino)-6-(((1-(piperidin-4-yl)-1H-1,2,3-triazol-4-yl)(thiophen-2-yl)methyl)amino)quinoline-3-carbonitrile]
16 nM | COCCn1cc([C@@H](Nc2cc(Cl)c3ncc(C#N)c(Nc4ccc(F)c(Cl)c4)c3c2)c2cc(C#N)cs2)nn1 [Example 337, (R)-8-chloro-4-((3-chloro-4-fluorophenyl)amino)-6-(((4-cyanothiophen-2-yl)(1-(2-methoxy-ethyl)-1H-1,2,3-triazol-4-yl)methyl)amino)quinoline-3-carbonitrile]
2 nM | CC(C)(C)CNc1c(C#N)cnc2c(C#N)cc(N[C@H](c3cn(C4(C(F)(F)F)CC4)nn3)c3csc4c3CCN(C3COC3)C4)cc12 [Example 429, (S)-4-(neopentylamino)-6-(((6-(oxetan-3-yl)-4,5,6,7-tetrahydrothieno[2,3-c]pyridin-3-yl)(1-(1-(trifluoromethyl)cyclopropyl)-1H-1,2,3-triazol-4-yl)methyl)amino)-quinoline-3,8-dicarbonitrile]
30 nM | CC(C)n1cc([C@@H](Nc2cc(Cl)c3ncc(C#N)c(Nc4ccc(F)c(Cl)c4)c3c2)c2cncn2C)nn1 [Example 311, (S)-8-chloro-4-((3-chloro-4-fluorophenyl)amino)-6-(((1-isopropyl-1H-1,2,3-triazol-4-yl)(1-methyl-1H-imidazol-5-yl)methyl)amino)quinoline-3-carbonitrile]
3 nM | Cn1ccc2c([C@H](Nc3cc(Cl)c4ncc(C#N)c(NCC(C)(C)C)c4c3)c3cn(C4(C(F)(F)F)CC4)nn3)cccc2c1=O [Example 618, (S)-8-chloro-6-(((2-methyl-1-oxo-1,2-dihydroisoquinolin-5-yl)(1-(1-(trifluoromethyl)cyclopropyl)-1H-1,2,3-triazol-4-yl)methyl)amino)-4-(neopentylamino)quinoline-3-carbonitrile]

Same assay, conditions: read-out: IC50 HTRF; Cot HTRF (TR-FRET KinEASE) biochemical assay, 400 μM ATP

IC50 | SMILES
4 nM | Cc1nc(F)ccc1[C@H](Nc1cc(C#N)c2ncc(C#N)c(NCC(C)(C)C)c2c1)c1nnn(C2(C3CC3)CC2)c1F [Example 865]

Reference: patent publication US11066414B2, “Cot modulators and methods of use thereof” (Gilead Sciences, Inc., priority 2015, dated 2021)
